# Results published in patent US8530489B2 (Vertex Pharmaceuticals Incorporated, priority 2006, dated 2013).
# Target: PLK1 (Homo sapiens, UniProt P53350)
# Test: PLK1 Inhibition Assay I (radioactive-phosphate incorporation)
# Assay type: biochemical
# Details: Ki(app); PLK1 Inhibition Assay I or II (table does not say which)
# Outline: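 Ki(app) values came from non-linear regression of initial rates after background subtraction, with phosphopeptide measured by phosphocellulose filter binding and scintillation counting. PLK1 at 2 nM was preincubated with compound (typically from 10 μM, 2-fold dilutions) for 10 min, then run 240 min at 25° C with 350 μM [γ-33P]ATP and 450 μM peptide substrate in HEPES pH 7.5 buffer.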
# Chain of PLK1 (P53350 whole entry): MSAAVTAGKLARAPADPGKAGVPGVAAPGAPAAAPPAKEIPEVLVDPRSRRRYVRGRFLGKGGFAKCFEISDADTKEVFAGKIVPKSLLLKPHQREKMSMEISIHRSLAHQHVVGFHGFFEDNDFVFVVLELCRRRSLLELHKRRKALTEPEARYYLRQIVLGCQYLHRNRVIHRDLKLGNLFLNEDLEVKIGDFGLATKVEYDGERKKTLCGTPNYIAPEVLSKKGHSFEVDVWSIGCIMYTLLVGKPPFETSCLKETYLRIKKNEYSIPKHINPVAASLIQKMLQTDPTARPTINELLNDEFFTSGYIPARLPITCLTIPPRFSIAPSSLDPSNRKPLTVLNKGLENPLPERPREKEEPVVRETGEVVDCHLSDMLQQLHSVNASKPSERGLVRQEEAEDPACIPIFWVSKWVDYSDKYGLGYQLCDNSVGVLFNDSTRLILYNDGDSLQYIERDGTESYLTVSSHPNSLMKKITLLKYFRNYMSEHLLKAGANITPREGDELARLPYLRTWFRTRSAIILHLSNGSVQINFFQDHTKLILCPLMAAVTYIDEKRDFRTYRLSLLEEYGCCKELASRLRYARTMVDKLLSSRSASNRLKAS
row,Structure (SMILES),Ki [nM]
1,"N#Cc1cnc(NC(CCO)C2CC2)nc1-c1c[nH]c2ncc(C(F)(F)F)cc12 (stereo not drawn) [Compound I-106, 2-(1-cyclopropyl-3-hydroxypropylamino)-4-(5-(trifluoromethyl)-1H-pyrrolo[2,3-b]pyridin-3-yl)pyrimidine-5-carbonitrile]",3 to 40
2,"N#Cc1cnc(NCc2ccc(Oc3ccccc3)cc2)nc1-c1c[nH]c2ncc(C(F)(F)F)cc12 [Compound I-46, 2-(4-phenoxybenzylamino)-4-(5-(trifluoromethyl)-1H-pyrrolo[2,3-b]pyridin-3-yl)pyrimidine-5-carbonitrile]",> 40
3,"COc1cc(CNc2ncc(C#N)c(-c3c[nH]c4ncc(C(F)(F)F)cc34)n2)ccc1O [Compound I-42, 2-(4-hydroxy-3-methoxybenzylamino)-4-(5-(trifluoromethyl)-1H-pyrrolo[2,3-b]pyridin-3-yl)pyrimidine-5-carbonitrile]",> 40
4,"COc1ccc([C@@H](C)Nc2ncc(C#N)c(-c3c[nH]c4ncc(C(F)(F)F)cc34)n2)cc1 [Compound I-26, 2-((R)-1-(4-methoxyphenyl)ethylamino)-4-(5-(trifluoromethyl)-1H-pyrrolo[2,3-b]pyridin-3-yl)pyrimidine-5-carbonitrile]",< 3
5,"C[C@@H](Nc1ncc(C#N)c(-c2c[nH]c3ncc(C(F)(F)F)cc23)n1)C1CCN(C(=O)[C@@H](N)CC#N)CC1 [Compound I-255, 2-((R)-1-(1-((S)-2-amino-3-cyanopropanoyl)piperidin-4-yl)ethylamino)-4-(5-(trifluoromethyl)-1H-pyrrolo[2,3-b]pyridin-3-yl)pyrimidine-5-carbonitrile]",< 3
6,"C[C@H](O)[C@@H](CO)Nc1ncc(C#N)c(-c2c[nH]c3ncc(C(F)(F)F)cc23)n1 [Compound I-108, 2-((2R,3S)-1,3-dihydroxybutan-2-ylamino)-4-(5-(trifluoromethyl)-1H-pyrrolo[2,3-b]pyridin-3-yl)pyrimidine-5-carbonitrile]",3 to 40
7,"C[C@H](O)C(=O)N1CCC([C@@H](C)Nc2ncc(C#N)c(-c3c[nH]c4ncc(C(F)(F)F)cc34)n2)CC1 [Compound I-228, 2-((R)-1-(1-((S)-2-hydroxypropanoyl)piperidin-4-yl)ethylamino)-4-(5-(trifluoromethyl)-1H-pyrrolo[2,3-b]pyridin-3-yl)pyrimidine-5-carbonitrile]",< 3
8,"N#Cc1cnc(Sc2ccccc2Br)nc1-c1c[nH]c2ncc(C(F)(F)F)cc12 [II-7, 2-(2-bromophenylthio)-4-(5-(trifluoromethyl)-1H-pyrrolo[2,3-b]pyridin-3-yl)pyrimidine-5-carbonitrile]",> 40
9,"CNCCCN(C)c1ccc([C@@H](C)Nc2ncc(C#N)c(-c3c[nH]c4ncc(C(F)(F)F)cc34)n2)cn1 [Compound I-289, 2-((R)-1-(6-(methyl(3-(methylamino)propyl)amino)pyridin-3-yl)ethylamino)-4-(5-(trifluoromethyl)-1H-pyrrolo[2,3-b]pyridin-3-yl)pyrimidine-5-carbonitrile]",< 3
10,"CC(C)[C@@H](N)CC(=O)N1CCC([C@@H](C)Nc2ncc(C#N)c(-c3c[nH]c4ncc(C(F)(F)F)cc34)n2)CC1 [Compound I-247, 2-((R)-1-(1-((S)-3-amino-4-methylpentanoyl)piperidin-4-yl)ethylamino)-4-(5-(trifluoromethyl)-1H-pyrrolo[2,3-b]pyridin-3-yl)pyrimidine-5-carbonitrile]",< 3
11,"CCCC(CCO)Sc1ncc(C#N)c(-c2c[nH]c3ncc(C(F)(F)F)cc23)n1 (stereo not drawn) [II-15, 2-(1-hydroxyhexan-3-ylthio)-4-(5-(trifluoromethyl)-1H-pyrrolo[2,3-b]pyridin-3-yl)pyrimidine-5-carbonitrile]",> 40
12,"N#Cc1cnc(NCCC2CCCN2)nc1-c1c[nH]c2ncc(C(F)(F)F)cc12 (stereo not drawn) [Compound I-85, 2-(2-(pyrrolidin-2-yl)ethylamino)-4-(5-(trifluoromethyl)-1H-pyrrolo[2,3-b]pyridin-3-yl)pyrimidine-5-carbonitrile]",> 40
13,"N#Cc1cnc(NCc2ccccc2)nc1-c1c[nH]c2ncc(C(F)(F)F)cc12 [Compound I-1, 2-(benzylamino)-4-(5-(trifluoromethyl)-1H-pyrrolo[2,3-b]pyridin-3-yl)pyrimidine-5-carbonitrile]",> 40

# Next, values leading:
row,Ki [nM],Structure (SMILES)
1,3 to 40,"N#Cc1cnc(NC2CCCCC2)nc1-c1c[nH]c2ncc(C(F)(F)F)cc12 [Compound I-10, 2-(cyclohexylamino)-4-(5-(trifluoromethyl)-1H-pyrrolo[2,3-b]pyridin-3-yl)pyrimidine-5-carbonitrile]"
2,3 to 40,"C[C@@H](Nc1ncc(C#N)c(-c2c[nH]c3ncc(C(F)(F)F)cc23)n1)c1ccc(C(=O)NC2CC2)cc1 [Compound I-171, 4-((1R)-1-(5-cyano-4-(5-(trifluoromethyl)-1H-pyrrolo[2,3-b]pyridin-3-yl)pyrimidin-2-ylamino)ethyl)-N-cyclopropylbenzamide]"
3,< 3,"CC(=O)N1CCC(C(C)Nc2ncc(C#N)c(-c3c[nH]c4ncc(C(F)(F)F)cc34)n2)CC1 (stereo not drawn) [Compound I-101, 2-(1-(1-acetylpiperidin-4-yl)ethylamino)-4-(5-(trifluoromethyl)-1H-pyrrolo[2,3-b]pyridin-3-yl)pyrimidine-5-carbonitrile]"
4,3 to 40,"N#Cc1cnc(NCc2cccnc2)nc1-c1c[nH]c2ncc(C(F)(F)F)cc12 [Compound I-14, 2-(pyridin-3-ylmethylamino)-4-(5-(trifluoromethyl)-1H-pyrrolo[2,3-b]pyridin-3-yl)pyrimidine-5-carbonitrile]"
5,< 3,"C[C@@H](Nc1ncc(C#N)c(-c2c[nH]c3ncc(C(F)(F)F)cc23)n1)c1ccc(O[C@H]2CCN(C)C2)cc1 [Compound I-146, 2-((R)-1-(4-((S)-1-methylpyrrolidin-3-yloxy)phenyl)ethylamino)-4-(5-(trifluoromethyl)-1H-pyrrolo[2,3-b]pyridin-3-yl)pyrimidine-5-carbonitrile]"
6,3 to 40,"CNC(=O)c1cccc(Nc2cnc3[nH]cc(-c4nc(NC(C)C)ncc4C#N)c3c2)c1 [EG7, 3-(3-(5-cyano-2-(isopropylamino)pyrimidin-4-yl)-1H-pyrrolo[2,3-b]pyridin-5-ylamino)-N-methylbenzamide]"
7,3 to 40,"C[C@@H](Nc1ncc(C#N)c(-c2c[nH]c3ncc(C(F)(F)F)cc23)n1)c1ccc(NCCN2CCCC2)nc1 [Compound I-223, 2-((R)-1-(6-(2-(pyrrolidin-1-yl)ethylamino)pyridin-3-yl)ethylamino)-4-(5-(trifluoromethyl)-1H-pyrrolo[2,3-b]pyridin-3-yl)pyrimidine-5-carbonitrile]"
8,> 40,"N#Cc1cnc(NC2CC2)nc1-c1c[nH]c2ncc(C(F)(F)F)cc12 [Compound I-76, 2-(cyclopropylamino)-4-(5-(trifluoromethyl)-1H-pyrrolo[2,3-b]pyridin-3-yl)pyrimidine-5-carbonitrile]"
9,< 3,"C[C@@H](Nc1ncc(C#N)c(-c2c[nH]c3ncc(C(F)(F)F)cc23)n1)c1ccc(NS(C)(=O)=O)c(F)c1 [Compound I-177, N-(4-((1R)-1-(5-cyano-4-(5-(trifluoromethyl)-1H-pyrrolo[2,3-b]pyridin-3-yl)pyrimidin-2-ylamino)ethyl)-2-fluorophenyl)methanesulfonamide]"
10,3 to 40,"CC(C)(Nc1ncc(C#N)c(-c2c[nH]c3ncc(C(F)(F)F)cc23)n1)C(=O)NCC(F)(F)F [IA-0, 2-(5-cyano-4-(5-(trifluoromethyl)-1H-pyrrolo[2,3-b]pyridin-3-yl)pyrimidin-2-ylamino)-2-methyl-N-(2,2,2-trifluoroethyl)propanamide]"
11,> 40,"N#Cc1cnc(Sc2cccc(Br)c2)nc1-c1c[nH]c2ncc(C(F)(F)F)cc12 [II-4, 2-(3-bromophenylthio)-4-(5-(trifluoromethyl)-1H-pyrrolo[2,3-b]pyridin-3-yl)pyrimidine-5-carbonitrile]"
12,3 to 40,"CC(Nc1ncc(C#N)c(-c2c[nH]c3ncc(C(F)(F)F)cc23)n1)c1ccc(N2CCC(O)(C3CC3)CC2)nc1 (stereo not drawn) [Compound I-195, 2-(1-(6-(4-cyclopropyl-4-hydroxypiperidin-1-yl)pyridin-3-yl)ethylamino)-4-(5-(trifluoromethyl)-1H-pyrrolo[2,3-b]pyridin-3-yl)pyrimidine-5-carbonitrile]"
13,< 3,"C[C@@H](Nc1ncc(C#N)c(-c2c[nH]c3ncc(C(F)(F)F)cc23)n1)C1CCN(C(=O)[C@H]2C[C@@H](N)C2)CC1 [Compound I-253, 2-((R)-1-(1-((1s,3S)-3-aminocyclobutanecarbonyl)piperidin-4-yl)ethylamino)-4-(5-(trifluoromethyl)-1H-pyrrolo[2,3-b]pyridin-3-yl)pyrimidine-5-carbonitrile]"
14,< 3,"C[C@@H](Nc1ncc(C#N)c(-c2c[nH]c3ncc(C(F)(F)F)cc23)n1)c1ccc(N(C)C2CCN(C)C2)nc1 (stereo partly drawn) [Compound I-295, 2-((1R)-1-(6-(methyl(1-methylpyrrolidin-3-yl)amino)pyridin-3-yl)ethylamino)-4-(5-(trifluoromethyl)-1H-pyrrolo[2,3-b]pyridin-3-yl)pyrimidine-5-carbonitrile]"
15,> 40,"N#Cc1cnc(NCc2nc3ccccc3[nH]2)nc1-c1c[nH]c2ncc(C(F)(F)F)cc12 [Compound I-30, 2-((1H-benzo[d]imidazol-2-yl)methylamino)-4-(5-(trifluoromethyl)-1H-pyrrolo[2,3-b]pyridin-3-yl)pyrimidine-5-carbonitrile]"
16,< 3,"CC(Nc1ncc(C#N)c(-c2c[nH]c3ncc(C(F)(F)F)cc23)n1)c1ccc(N2CCOCC2)nc1 (stereo not drawn) [Compound I-138, 2-(1-(6-morpholinopyridin-3-yl)ethylamino)-4-(5-(trifluoromethyl)-1H-pyrrolo[2,3-b]pyridin-3-yl)pyrimidine-5-carbonitrile]"
17,> 40,"CCCC(C)Sc1ncc(C#N)c(-c2c[nH]c3ncc(C(F)(F)F)cc23)n1 (stereo not drawn) [II-16, 2-(pentan-2-ylthio)-4-(5-(trifluoromethyl)-1H-pyrrolo[2,3-b]pyridin-3-yl)pyrimidine-5-carbonitrile]"
